In experiment [1] the target is PHD2 enzyme (residues 181-417) (Homo sapiens (Human), UniProt Q9GZT9). Nature of the experiment: Inhibition of PHD enzyme (LC/MS peptide hydroxylation assay). It is filed as biochemical. The settings on record: PHD2 (residues 181-417) 5 nM, 60 min pre-incubation; -log(IC50), IC50 molar. In short, it runs like this: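 Hydroxylated peptide quantified by LC/MS after 60 min turnover of 1 uM biotinylated peptide with 2 uM 2-oxoglutarate and 1 mM ascorbate, stopped by excess tight-binding inhibitor. Beforehand, 5 nM enzyme and compound were preincubated 60 min at RT, pH 7.3 HEPES/KCl/TCEP/FeCl2/BSA buffer. Values as pIC50 (−log molar IC50).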

Experiment [2] relates to HIF1a protein in H9c2 rat cardiomyocytes. Briefly: Cell-based HIF-alpha stabilization assay (inhibition of PHD in cells). The settings on record: Rattus norvegicus, H9c2, 24 h, 24 hrs compound incubation, HIF1a protein by ELISA, read-out: Inhibition of PHD in cells (pEC50) (converted). Summed up: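 HIF1a stabilization was measured by ELISA on lysates of H9c2 rat cardiomyocytes after 24 h exposure to 11 serial compound concentrations, expressed relative to the desferrioxamine maximum. Curve fits gave EC50. EC50pos denotes the concentration producing half the desferrioxamine maximal response.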

Experimental findings from patent publication US10407409B2, “6-(5-hydroxy-1H-pyrazol-1-yl)nicotinamide inhibitors of PHD” (Takeda Pharmaceutical Company Limited, priority 2013, dated 2019) are described below.

Sequence of PHD2 enzyme (residues 181-417) (Q9GZT9 181-417): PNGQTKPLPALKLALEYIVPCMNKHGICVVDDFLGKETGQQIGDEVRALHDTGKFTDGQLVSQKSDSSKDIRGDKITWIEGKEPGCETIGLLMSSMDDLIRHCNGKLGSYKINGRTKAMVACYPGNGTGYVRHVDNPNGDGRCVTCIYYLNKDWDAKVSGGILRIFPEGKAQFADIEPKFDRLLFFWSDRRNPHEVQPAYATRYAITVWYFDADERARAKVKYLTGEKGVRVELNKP

On to `COc1cc(-c2cnn(-c3ccc(C(=O)N(C)C4CC4)cn3)c2O)ccn1` [Example 243, N-cyclopropyl-6-(5-hydroxy-4-(2-methoxypyridin-4-yl)-1H-pyrazol-1-yl)-N-methylnicotinamide], for which the “PHD Inhibition (pIC50)” value in experiment [1] is 6.9. The EC50 in experiment [2] is 4170 nM.

In the case of `COc1cc(C#N)ccc1-c1cnn(-c2ccc(C(=O)N[C@H]3CC[C@@H](OC)CC3)cn2)c1O` [Example 230, 6-(4-(4-cyano-2-methoxyphenyl)-5-hydroxy-1H-pyrazol-1-yl)-N-((1s,4s)-4-methoxycyclohexyl)nicotinamide], in experiment [1], the “PHD Inhibition (pIC50)” value was determined as 6.83. Also, the EC50 in experiment [2] is 407 nM.

As to `Cc1cc(C#N)ccc1-c1cnn(-c2ccc(C(=O)N3CCC[C@H](N(C)C)C3)cn2)c1O` [Example 376, (S)-4-(1-(5-(3-(dimethylamino)piperidine-1-carbonyl)pyridin-2-yl)-5-hydroxy-1H-pyrazol-4-yl)-3-methylbenzonitrile], the “PHD Inhibition (pIC50)” value in experiment [1] is 7.61. Also, the EC50 in experiment [2] was 891 nM.

In the case of `O=C(NCc1ccccc1)c1ccc(-n2ncc(-c3ccccn3)c2O)cc1` [Example 280, N-benzyl-4-(5-hydroxy-4-(pyridin-2-yl)-1H-pyrazol-1-yl)benzamide], the “PHD Inhibition (pIC50)” value in experiment [1] is reported as 5.69. In experiment [2], the EC50 is 50100 nM.

Turning to `Cc1cc(C#N)ccc1-c1cnn(-c2ccc(C(=O)N[C@H](C)C3CCOCC3)cn2)c1O` [Example 63, (R)-6-(4-(4-cyano-2-methylphenyl)-5-hydroxy-1H-pyrazol-1-yl)-N-(1-(tetrahydro-2H-pyran-4-yl)ethyl)nicotinamide], the “PHD Inhibition (pIC50)” value in experiment [1] amounted to 7.25. The EC50 in experiment [2] is 158 nM.

`Cc1cc(C#N)ccc1-c1cnn(-c2ccc(C(=O)NCC3CCOCC3)cn2)c1O` [Example 222, 6-(4-(4-cyano-2-methylphenyl)-5-hydroxy-1H-pyrazol-1-yl)-N-((tetrahydro-2H-pyran-4-yl)methyl)nicotinamide]: the “PHD Inhibition (pIC50)” value in experiment [1] amounted to 7.25. In addition, the EC50 in experiment [2] was 100 nM.

With `CN1CCOC(CNC(=O)c2ccc(-n3ncc(-c4ccc(C#N)cc4)c3O)nc2)C1` (centres unmarked) [Example 111, 6-(4-(4-cyanophenyl)-5-hydroxy-1H-pyrazol-1-yl)-N-((4-methylmorpholin-2-yl)methyl)nicotinamide], the “PHD Inhibition (pIC50)” value in experiment [1] came to 7.8. Besides, the EC50 in experiment [2] is 2140 nM.

For `Cc1cc(C#N)ccc1-c1cnn(-c2ccc(C(=O)N3CCC4(CN(C)C4)C3)cn2)c1O` [Example 293, 4-(5-hydroxy-1-(5-(2-methyl-2,6-diazaspiro[3.4]octane-6-carbonyl)pyridin-2-yl)-1H-pyrazol-4-yl)-3-methylbenzonitrile], in experiment [1], the “PHD Inhibition (pIC50)” value is given as 8.05. In addition, in experiment [2], the EC50 was 324 nM.

As to `Cc1c(-c2cnn(-c3ccc(C(=O)N4CCCN(C5CC5)CC4)cn3)c2O)ccc(C#N)c1F` [Example 323, 4-(1-(5-(4-cyclopropyl-1,4-diazepane-1-carbonyl)pyridin-2-yl)-5-hydroxy-1H-pyrazol-4-yl)-2-fluoro-3-methylbenzonitrile], the “PHD Inhibition (pIC50)” value in experiment [1] was found to be 8.33. In addition, the EC50 in experiment [2] was 1820 nM.

Turning to `N#Cc1ccc(-c2cnn(-c3ccc(C(=O)NC4CCOCC4)cn3)c2O)cc1` [Example 81, 6-(4-(4-cyanophenyl)-5-hydroxy-1H-pyrazol-1-yl)-N-(tetrahydro-2H-pyran-4-yl)nicotinamide], in experiment [1], the “PHD Inhibition (pIC50)” value worked out at 7.2. Further, the EC50 in experiment [2] was 4790 nM.

As to `CCN1CCN(C(=O)c2ccc(-n3ncc(-c4cc(F)c(C#N)cc4C)c3O)nc2)C[C@H]1C` [Example 395, (R)-4-(1-(5-(4-ethyl-3-methylpiperazine-1-carbonyl)pyridin-2-yl)-5-hydroxy-1H-pyrazol-4-yl)-2-fluoro-5-methylbenzonitrile], the “PHD Inhibition (pIC50)” value in experiment [1] stood at 8.48. Besides, in experiment [2], the EC50 was 2630 nM.

In the case of `COc1cc(-c2cnn(-c3ccc(C(=O)NCC4CCOCC4)cn3)c2O)ccc1C#N` [Example 253, 6-(4-(4-cyano-3-methoxyphenyl)-5-hydroxy-1H-pyrazol-1-yl)-N-((tetrahydro-2H-pyran-4-yl)methyl)nicotinamide], the “PHD Inhibition (pIC50)” value in experiment [1] turned out to be 8.3. The EC50 in experiment [2] was 5620 nM.

For `CN(C(=O)c1ccc(-n2ncc(-c3ccc(C#N)cc3)c2O)nc1)C1CC1` [Example 239, 6-(4-(4-cyanophenyl)-5-hydroxy-1H-pyrazol-1-yl)-N-cyclopropyl-N-methylnicotinamide], the “PHD Inhibition (pIC50)” value in experiment [1] stood at 7.12. Further, in experiment [2], the EC50 is 1700 nM.

For `Cc1cc(C#N)c(F)cc1-c1cnn(-c2ccc(C(=O)N3CCN(C4CC4)CC3)cn2)c1O` [Example 308, 4-(1-(5-(4-cyclopropylpiperazine-1-carbonyl)pyridin-2-yl)-5-hydroxy-1H-pyrazol-4-yl)-2-fluoro-5-methylbenzonitrile], in experiment [1], the “PHD Inhibition (pIC50)” value is reported as 8.28. Moreover, the EC50 in experiment [2] was 6610 nM.

For the compound `N#Cc1ccc(-c2cnn(-c3ccc(C(=O)NCC4CCOCC4)cn3)c2O)c(Cl)c1` [Example 197, 6-(4-(2-chloro-4-cyanophenyl)-5-hydroxy-1H-pyrazol-1-yl)-N-((tetrahydro-2H-pyran-4-yl)methyl)nicotinamide], in experiment [1], the “PHD Inhibition (pIC50)” value was found to be 6.83. The EC50 in experiment [2] was 1580 nM.

With `COCCCNC(=O)c1ccc(-n2ncc(-c3c(C)cc(C#N)cc3F)c2O)nc1` [Example 404, 6-(4-(4-cyano-2-fluoro-6-methylphenyl)-5-hydroxy-1H-pyrazol-1-yl)-N-(3-methoxypropyl)nicotinamide], the “PHD Inhibition (pIC50)” value in experiment [1] is on record as 8.01. Besides, the EC50 in experiment [2] is 631 nM.

`Cc1cc(C#N)ccc1-c1cnn(-c2ccc(C(=O)N(C)C3CC3)cn2)c1O` [Example 246, 6-(4-(4-cyano-2-methylphenyl)-5-hydroxy-1H-pyrazol-1-yl)-N-cyclopropyl-N-methylnicotinamide]: the “PHD Inhibition (pIC50)” value in experiment [1] was found to be 7.8. Further, the EC50 in experiment [2] is 407 nM.

`Cc1cc(C#N)ccc1-c1cnn(-c2ccc(C(=O)N(C)C3CN(C)C3)cn2)c1O` [Example 432, 6-(4-(4-cyano-2-methylphenyl)-5-hydroxy-1H-pyrazol-1-yl)-N-methyl-N-(1-methylazetidin-3-yl)nicotinamide]: in experiment [1], the “PHD Inhibition (pIC50)” value is on record as 8.02. In addition, the EC50 in experiment [2] was 741 nM.

As to `N#Cc1ccc(-c2cnn(-c3ccc(C(=O)N[C@@H]4CCOC4)cn3)c2O)cc1` [Example 154, (R)-6-(4-(4-cyanophenyl)-5-hydroxy-1H-pyrazol-1-yl)-N-(tetrahydrofuran-3-yl)nicotinamide], the “PHD Inhibition (pIC50)” value in experiment [1] is 7.68. The EC50 in experiment [2] was 1480 nM.

In the case of `COCC(C)(C)NC(=O)c1ccc(-n2ncc(-c3ccc(C#N)cc3)c2O)nc1` [Example 200, 6-(4-(4-cyanophenyl)-5-hydroxy-1H-pyrazol-1-yl)-N-(1-methoxy-2-methylpropan-2-yl)nicotinamide], the “PHD Inhibition (pIC50)” value in experiment [1] is given as 7.09. Besides, the EC50 in experiment [2] was 1100 nM.

In the case of `O=C(NCc1ccccc1)c1ccc(-n2ncc(-n3ccccc3=O)c2O)nc1` [Example 193, N-benzyl-6-(5-hydroxy-4-(2-oxopyridin-1(2H)-yl)-1H-pyrazol-1-yl)nicotinamide], the “PHD Inhibition (pIC50)” value in experiment [1] came out at 7.57. Also, in experiment [2], the EC50 is 2690 nM.

For `Cc1c(-c2cnn(-c3ccc(C(=O)N4CCOCC4)cn3)c2O)ccc(C#N)c1F` [Example 327, 2-fluoro-4-(5-hydroxy-1-(5-(morpholine-4-carbonyl)pyridin-2-yl)-1H-pyrazol-4-yl)-3-methylbenzonitrile], in experiment [1], the “PHD Inhibition (pIC50)” value came out at 8.47. For the same compound, the EC50 in experiment [2] was 589 nM.

On to `Cc1cc(C#N)ccc1-c1cnn(-c2ccc(C(=O)N3CC[C@H](N(C)C)C3)cn2)c1O` [Example 412, (S)-4-(1-(5-(3-(dimethylamino)pyrrolidine-1-carbonyl)pyridin-2-yl)-5-hydroxy-1H-pyrazol-4-yl)-3-methylbenzonitrile], for which the “PHD Inhibition (pIC50)” value in experiment [1] amounted to 8.11. In addition, the EC50 in experiment [2] was 282 nM.

`COCC(C)CNC(=O)c1ccc(-n2ncc(-c3ccnc(OC)c3)c2O)nc1` (centres unmarked) [Example 49, 6-(5-hydroxy-4-(2-methoxypyridin-4-yl)-1H-pyrazol-1-yl)-N-(3-methoxy-2-methylpropyl)nicotinamide]: the “PHD Inhibition (pIC50)” value in experiment [1] was 7.9. Besides, the EC50 in experiment [2] was 871 nM.

As to `CC(C)NC(=O)c1ccc(-n2ncc(-c3ccc(C#N)cc3)c2O)nc1` [Example 159, 6-(4-(4-cyanophenyl)-5-hydroxy-1H-pyrazol-1-yl)-N-isopropylnicotinamide], the “PHD Inhibition (pIC50)” value in experiment [1] came out at 7.15. The EC50 in experiment [2] was 912 nM.

As for `Cc1cc(C#N)ccc1-c1cnn(-c2ccc(C(=O)N3CCN(C4CC4)CC3)cn2)c1O` [Example 414, 4-(1-(5-(4-cyclopropylpiperazine-1-carbonyl)pyridin-2-yl)-5-hydroxy-1H-pyrazol-4-yl)-3-methylbenzonitrile], the “PHD Inhibition (pIC50)” value in experiment [1] is given as 8.39. For the same compound, the EC50 in experiment [2] was 832 nM.

As to `Cc1cc(C#N)ccc1-c1cnn(-c2ccc(C(=O)N3CCN(C)[C@H](C)C3)cn2)c1O` [Example 392, (R)-4-(1-(5-(3,4-dimethylpiperazine-1-carbonyl)pyridin-2-yl)-5-hydroxy-1H-pyrazol-4-yl)-3-methylbenzonitrile], the “PHD Inhibition (pIC50)” value in experiment [1] was 8.20. In experiment [2], the EC50 is 355 nM.

Regarding `CC(C)(C)NC(=O)c1ccc(-n2ncc(-c3ccc(C#N)cc3)c2O)nc1` [Example 202, N-(tert-butyl)-6-(4-(4-cyanophenyl)-5-hydroxy-1H-pyrazol-1-yl)nicotinamide], the “PHD Inhibition (pIC50)” value in experiment [1] is reported as 7.23. Besides, the EC50 in experiment [2] was 724 nM.
